Where two headings read alike, the source gives them in different places.
How the values were obtained:
[1] = target: T1, PARP-1 (Homo sapiens, UniProt P09874); assay: NAD+ quantitation (fluorescence) assay, determination of IC50 values for PARP inhibitors; assay type: biochemical
T1 construct: purchased Trevigen
Description: This assay was also applied to determine the IC50 values of the known PARP inhibitors. For these determinations, the inhibitors, at a variety of concentrations, were added to a 96-well plate containing NAD+ and nicked DNA. PARP-1 was then added, and the reaction was allowed to proceed for 15 min. At this point acetophenone/KOH was added, which serves to both quench the PARP-1 enzymatic activity and to begin the conversion of any remaining NAD+ to the fluorophore. After 10 min at 4° C. in the presence of acetophenone/KOH, a solution of formic acid was added and the mixture was incubated in a 110° C. oven for 5 minutes.
In addition, only very low levels of NAD+ were used in this assay (100 nM). […] However, NAD+ concentrations up to 100 μM can also be used, if one desires a direct correlation with other assay methods that typically use micromolar amounts of NAD+ substrate.
The reaction was initiated by adding 10 μL of PARP at a concentration of 10 μg/mL (in PARP assay buffer), bringing the final concentration to 2 μg/mL PARP, 10 μg/mL DNA, 100 nM NAD+ with varying concentrations of inhibitors in a total volume of 50 μL. The plate was incubated for 15 min at room temperature and the amount of NAD+ was then determined by the fluorescence method as described above for the calibration curve. The average value of control wells containing only NAD+ was set as 0% PARP activity, while the average value of control wells containing NAD+ and PARP (but no inhibitor) was set as 100% PARP activity. […] All data points in FIG. 8 were determined in quadruplicate.
Graphs were analyzed using Table Curve 2D. NAD+ standard curves were fitted with a least squares linear model and inhibitor curves were fitted with a logistic dose response curve.

[2] = target: PARP (Homo sapiens, UniProt P09874); details: literature values, references in brackets; cited from earlier work
Chain of PARP (P09874 whole entry): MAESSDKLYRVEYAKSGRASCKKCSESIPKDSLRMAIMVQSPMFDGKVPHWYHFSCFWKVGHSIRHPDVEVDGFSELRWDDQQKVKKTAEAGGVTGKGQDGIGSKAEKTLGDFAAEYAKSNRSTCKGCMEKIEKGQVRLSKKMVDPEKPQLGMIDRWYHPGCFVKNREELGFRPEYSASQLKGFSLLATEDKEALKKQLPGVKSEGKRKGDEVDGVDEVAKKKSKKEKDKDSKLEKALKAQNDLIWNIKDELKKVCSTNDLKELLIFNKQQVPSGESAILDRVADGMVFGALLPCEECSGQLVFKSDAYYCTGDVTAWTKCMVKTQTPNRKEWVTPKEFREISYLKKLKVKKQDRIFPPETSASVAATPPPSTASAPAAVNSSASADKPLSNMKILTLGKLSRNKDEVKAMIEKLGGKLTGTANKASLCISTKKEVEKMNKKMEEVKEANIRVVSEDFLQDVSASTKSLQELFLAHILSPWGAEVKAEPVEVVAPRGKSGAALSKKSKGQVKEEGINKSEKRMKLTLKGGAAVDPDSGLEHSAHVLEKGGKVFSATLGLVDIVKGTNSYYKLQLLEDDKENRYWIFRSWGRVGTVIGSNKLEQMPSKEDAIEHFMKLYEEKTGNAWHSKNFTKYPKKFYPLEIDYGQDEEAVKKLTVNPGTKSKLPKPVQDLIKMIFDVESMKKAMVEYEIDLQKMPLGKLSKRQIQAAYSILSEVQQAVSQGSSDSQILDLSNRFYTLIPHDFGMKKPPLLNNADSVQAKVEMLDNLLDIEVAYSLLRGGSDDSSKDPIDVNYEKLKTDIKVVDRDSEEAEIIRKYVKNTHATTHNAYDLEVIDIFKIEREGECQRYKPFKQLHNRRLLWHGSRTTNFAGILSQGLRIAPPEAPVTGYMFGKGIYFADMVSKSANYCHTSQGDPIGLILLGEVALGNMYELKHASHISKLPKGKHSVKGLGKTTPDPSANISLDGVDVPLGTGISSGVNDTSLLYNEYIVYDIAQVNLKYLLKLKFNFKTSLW

[3] = 100 nM NAD+, 2 μg/mL PARP, 10 μg/mL DNA, 15 min at room temperature, 96-well plate, read-out: IC50 value

T1 sequence (P09874 whole entry): as above

IC50 [1, 3] [nM] | Compound | IC50 [2] [nM] | IC50 [1] [nM]
1440 | NC(=O)c1ccccc1 [benzamide] | 1300 | 
 | O=C1NCCc2c(OCCCCN3CCCCC3)cccc21 [DPQ, 3,4-dihydro-5-[4-(1-piperidinyl)butoxy]-1 (2B)-isoquinolinone] |  | 37
305 | O=c1[nH]c2ccccc2c2ccccc12 [6(5H)-phenanthridinons, 6(5H)-phenanthridinone] |  | 
